Test results published in the NIST ThermoML archive (doi:10.1016/j.jct.2005.11.009).
Numbers after ± are expanded uncertainties.

Details: Liquid, Transpiration method

CCCCCCCCCCc1ccccc1 [1-phenyldecane]
Details | vapor or sublimation pressure [kPa]
318.2 K | 0.00122 ± 9e-05
323.2 K | 0.00192 ± 0.00014
328.3 K | 0.00293 ± 0.00021
333.5 K | 0.0045 ± 0.00032
338.6 K | 0.00655 ± 0.00047
343.7 K | 0.00966 ± 0.00069
348.7 K | 0.0144 ± 0.001
353.3 K | 0.0203 ± 0.0014
358.4 K | 0.0288 ± 0.002
363.4 K | 0.0406 ± 0.0029

CCCCCCCc1ccccc1 [heptylbenzene]
Details | vapor or sublimation pressure [kPa]
292.5 K | 0.00286 ± 0.00021
294.5 K | 0.00347 ± 0.00025
297.5 K | 0.00455 ± 0.00033
300.4 K | 0.00585 ± 0.00042
303.4 K | 0.00761 ± 0.00054
306.4 K | 0.00955 ± 0.00068
309.4 K | 0.01227 ± 0.00087
312.4 K | 0.01486 ± 0.0011
315.4 K | 0.01959 ± 0.0014
318.2 K | 0.02441 ± 0.0017
321.3 K | 0.03085 ± 0.0022
323.4 K | 0.03499 ± 0.0025
326.4 K | 0.04342 ± 0.0031
328.4 K | 0.04901 ± 0.0035
331.3 K | 0.06114 ± 0.0043
333.5 K | 0.06975 ± 0.0049
336.4 K | 0.0845 ± 0.006
338.5 K | 0.09752 ± 0.0069
341.3 K | 0.1139 ± 0.0081
343.5 K | 0.1322 ± 0.0094
346.3 K | 0.1552 ± 0.011
348.5 K | 0.1818 ± 0.013
351.5 K | 0.2197 ± 0.015
353.5 K | 0.2474 ± 0.018

CCCCCc1ccccc1 [pentylbenzene]
Details | vapor or sublimation pressure [kPa]
284.5 K | 0.0162 ± 0.0012
287.5 K | 0.0218 ± 0.0016
290.4 K | 0.0272 ± 0.0019
293.3 K | 0.0333 ± 0.0024
293.4 K | 0.0328 ± 0.0023
296.3 K | 0.0427 ± 0.003
298.3 K | 0.0493 ± 0.0035
303.2 K | 0.0706 ± 0.005
306.3 K | 0.0902 ± 0.0064
308.2 K | 0.0998 ± 0.0071
311.2 K | 0.1227 ± 0.0087
314.2 K | 0.1487 ± 0.011
317.3 K | 0.1765 ± 0.013
320.3 K | 0.2193 ± 0.016
323.2 K | 0.2711 ± 0.019

CCCCCCCCCCCc1ccccc1 [undecylbenzene]
Details | vapor or sublimation pressure [kPa]
313.2 K | 0.00027 ± 2e-05
319.3 K | 0.0005 ± 4e-05
323.3 K | 0.00072 ± 5e-05
327.3 K | 0.00104 ± 7e-05
331.3 K | 0.00146 ± 0.0001
333.4 K | 0.00176 ± 0.00013
338.4 K | 0.00262 ± 0.00019
343.5 K | 0.00413 ± 0.0003
348.7 K | 0.00598 ± 0.00043
353.6 K | 0.00906 ± 0.00065
358.7 K | 0.01272 ± 0.0009
363.8 K | 0.01807 ± 0.0013
